Structures are written as SMILES. Where two headings read alike, the source gives them in different places. Where only a bound is given, the exact number is not on record here.

The record followed here is patent US12157713B2, “Conjugated oligoelectrolytes as antimicrobial agents” (Nanyang Technological University, priority 2018, dated 2024).

In one data set the test system is E. coli K12. In words: MIC by broth microdilution against E. coli K12. As to conditions: Escherichia coli. Format: cell-based. As for the experimental part: (§1) The respective minimum inhibition concentration (MIC) of each COE molecule was determined using a broth microdilution method. Briefly, COEs were diluted via a 2-fold dilution series in 100 μL of either Muller Hinton Broth (MHB) for E. coli and S. aureus or Brain Heart Infusion Broth (BHI) for E. faecalis in a 96-well plate to achieve the desired final concentration. Subsequently, each well was inoculated with 100 μL of 1×10^6 colony forming units (CFU) mL^−1 of the respective microorganism in MHB for E. coli or BHI for E. faecalis to achieve an inoculum density of 5×10^5 CFU mL^−1. The plates were then incubated at 37° C. with shaking (200 rpm) for 18 hrs. […] The results were obtained in triplicate.
The MIC values of COE-D4, COE-D6 and COE-D8 against the reference strain E. coli K12, pathogenic E. coli UT189, and the Gram positive pathogen Enterococcus faecalis OG1RF were determined using a broth microdilution method as described in the general method above. The MICs for E. coli K12 were determined to be 128, 16, and 4 μg mL^−1 for COE-D4, COE-D6, and COE-D8, respectively (FIG. 5a). […] This is not surprising as these two organisms differ in the capsular polysaccharides that they expressed, which are known to hinder the uptake of antimicrobials and mitigate their potency (M. A. Campos, et al., Infect. Immun. 2004, 72, 7107-7114). A K-type capsid comprising α2-8-linked sialic acid is excreted by UT189 and is known to be an important virulence factor for this organism (C. Whitfield, et al., Mol. Microbiol. 1999, 31, 1307-1319; G. G. Anderson, et al., Infect. Immun. 2010, 78, 963-975).

The subject of data set [1] is Staphylococcus aureus MRSA ATCC 43300. Put plainly: Single-dose growth inhibition, Sa. Format: cell-based. How it is done:
Inhibition of bacterial growth was determined by measuring the absorbance at 600 nm (OD600), using a Tecan M1000 Pro monochromator plate reader. Growth inhibition was calculated for each well, relative to the reference growths determined from a negative control (media only) and positive control (bacteria without inhibitors) incubated in the same plate. A single dose of 32 μg/mL of COE (final concentration) was used for each test.
Percentage growth inhibition of an individual sample was calculated based on growth in a reference well determined from negative controls (media only) and positive controls (bacterial/fungal media without inhibitors). Negative inhibition values indicate that the growth rate (or OD600) is higher compared to the reference growth (bacteria/fungi only, set to 0% inhibition). The growth rates for all bacteria and fungi may vary at −/+10%, which were within the reported normal distribution of bacterial/fungal growth. Any significant variations (or outliers/hits) were identified by the modified Z-Score, and the active compounds were selected by a combination of inhibition values and Z-Score.
A M(i) value of >|2.5| (absolute) would classify the sample as outliers or hits. Active samples were denoted as compounds with inhibition values equal to or above 80% and absolute Z-Score above |2.5| for either replicate (n=2 on different plates). Partial active samples were denoted as compounds with inhibition values from 50% to <80%, or absolute Z-Score below |2.5|.

In data set [2] the test system is Staphylococcus aureus 25923. Put plainly: MIC against S. aureus 25923. Format: cell-based. How it is done: as §1
(§2) The antimicrobial effects of COE-D62N and COE-D82N were also tested on the Gram-positive Staphylococcus aureus 25923 and Methicillin-resistant Staphylococcus aureus(MRSA BAA-40), in comparison with vancomycin (FIG. 5b).

The subject of another data set is HepG2 cells. In words: Toxicity on HepG2 cells. Format: cell-based. The following applies: Homo sapiens.
The test system of data set [3] is Staphylococcus aureus on reconstituted human epidermis (RHE). Put plainly: Reconstituted human epidermis skin model inoculated with S. aureus. Format: cell-based. The following applies: 10× the MIC of S. aureus. How it is done: Reconstituted human epidermis (RHE) was cultured in multiwell plates on polymer membrane inserts (0.5 cm^2 surface area) using immortalized human keratinocytes (250,000 NTERTS) in CnT prime media (from CellnTec) for 48 hours after which they were transferred to CnT 3D prime media for 24 hours before air lifting. The media was changed every 48 hours thereafter and RHE was grown for at least 7 days. After the stratified layers of the RHE were formed, a standardised inoculum of Staphylococcus aureus was added to RHEs (with the exception of the negative control), followed by the addition of 10× the MIC of S. aureaus of antimicrobial COEs.

Data set [4] in a line: Aqueous solubility (further tests). Format: physicochemical. The following applies: aqueous medium (not further specified).
A short description of data set [5]: Intrinsic hepatic clearance in mice. Format: in vitro ADME.
The subject of data set [6] is Methicillin-resistant Staphylococcus aureus (MRSA BAA-40). Put plainly: MIC against MRSA BAA-40. The following applies: for MIC in comparison with vancomycin: all three strains: E. coli K12, S. aureus 25923, MRSA BAA-40 (FIG. 5b). Format: cell-based. How it is done:
as §1, §2

The subject of data set [7] is MRSA BAA-40. In words: Time-kill assay. As to conditions: 32 μg/mL; for Reduction of viability of MRSA BAA-40 compared with vancomycin: FIG. 11a. Format: cell-based, Staphylococcus aureus. As for the experimental part:
A stationary-phase culture of MRSA BAA-40 was diluted to 2×10^8 CFU/mL in fresh MHB. 500 μL of this suspension was then mixed with another 500 μL of MHB containing twice the desired final concentrations of COEs and vancomycin (32 μg/mL). The tube was incubated at 37° C. with 200 rpm shaking. Aliquots were removed at various time points and were serially diluted in PBS, and plated on MHB plates to enumerate CFU/mL.

Data set [8] relates to MRSA BAA-40. Put plainly: Resistance evolution experiment (serial passage). Format: cell-based, Staphylococcus aureus. As to conditions: for MIC on MRSA BAA-40 during serial passage: from the 5th day onwards, 17 days; for Tendency to cause resistance in the bacteria: serial passage for 17 days. How it is done:
To evaluate the propensity of COE to induce resistance, a serial passage of MRSA BAA-40 in MHB medium containing 100-fold diluted stationary-phase culture with increasing concentrations of COE was performed.

The mark [9] stands for this setting: K12, 18 h, read-out: MIC against E. coli K12.
The mark [10] stands for this setting: K12, read-out: MIC against E. coli K12.
The mark [11] stands for this setting: K12, read-out: MICeff (MIC×U %).
The mark [12] stands for this setting: K12, broth microdilution, MHB, 18 hrs, read-out: MIC against E. coli K12.
Where [13] appears, read: 32 μg/mL single dose, n=2, read-out: Growth inhibition Sa.

As for `C[N+](C)(C)CCCCOc1ccc(/C=C/c2ccc(OCCCC[N+](C)(C)C)cc2)cc1` [COE-D4], the MIC in the data set with E. coli K12 (setting [9]) was determined as 128 µg/mL; with E. coli K12 (setting [10]), 128 µg/mL; with E. coli K12 (setting [11]), 3.8 µg/mL. The inhibition at 32 µg/mL in data set [1] (read-out: Growth inhibition Sa) was more than 80%.
`C[N+](C)(C)CCCCCCOc1ccc(/C=C/c2ccc(OCCCCCC[N+](C)(C)C)cc2)cc1` [COE-D6]: the MIC stood at 16 µg/mL in the data set with E. coli K12 (setting [9]), 16 µg/mL in the data set on E. coli K12 (setting [10]) and 2.6 µg/mL with E. coli K12 (setting [11]). In data set [1] (read-out: Growth inhibition Sa), the inhibition at 32 µg/mL is more than 80%.
Consider `C[N+](C)(C)CCCCCCCCOc1ccc(/C=C/c2ccc(OCCCCCCCC[N+](C)(C)C)cc2)cc1` [COE-D8], for which the results for the MIC with E. coli K12 (setting [9]), in the data set with E. coli K12 (setting [10]) and in the data set on E. coli K12 (setting [11]) were 4 µg/mL, 4 µg/mL and 2.9 µg/mL, respectively. Besides, in data set [1] (read-out: Growth inhibition Sa), the inhibition at 32 µg/mL is more than 80%.
Consider `CN(C)CC[N+](C)(C)CCCCCCOc1ccc(/C=C/c2ccc(OCCCCCC[N+](C)(C)CCN(C)C)cc2)cc1` [COE-D62N], for which the MIC in [2] is 1 µg/mL; with E. coli K12 (setting [12]), 8 µg/mL; in data set [6] (Staphylococcus aureus) it was 1 µg/mL. The molecule also returned an IC50 in the data set on HepG2 cells of more than 30 µM. Also, the “Skin structure of infected RHE model after treatment” value in [3] is on record as “intact skin structure”. In addition, the solubility in [4] was more than 200 µM. Also, the “intrinsic hepatic clearance in mice” value in data set [5] is reported as “good”. Further, the “MIC in comparison with vancomycin” value in data set [6] is given as “lower MIC than vancomycin”. In addition, the “Reduction of viability of MRSA BAA-40 compared with vancomycin” value with MRSA BAA-40 [7] is listed as “much faster than that of vancomycin”. For the same molecule, the inhibition at 32 µg/mL in data set [1] (setting [13]) is more than 80%. Besides, the “MIC on MRSA BAA-40 during serial passage” value in the data set with MRSA BAA-40 [8] is on record as “remained relatively constant”. Also, the “Tendency to cause resistance in the bacteria” value in the data set on MRSA BAA-40 [8] is “low tendency to cause resistance”.
Turning to `CN(C)CC[N+](C)(C)CCCCCCCCOc1ccc(/C=C/c2ccc(OCCCCCCCC[N+](C)(C)CCN(C)C)cc2)cc1` [COE-D82N], the “Skin structure of infected RHE model after treatment” value in data set [3] is “intact skin structure”. Moreover, the MIC in the data set with E. coli K12 (setting [12]) amounted to 8 µg/mL. Also, the “MIC in comparison with vancomycin” value in data set [6] is “lower MIC than vancomycin”. In the data set with MRSA BAA-40 [7], the “Time to reduce viability of MRSA close to the minimum” value was not above 2 h and the “Reduction of viability of MRSA BAA-40 compared with vancomycin” value is on record as “much faster than that of vancomycin”. Further, the inhibition at 32 µg/mL in data set [1] (setting [13]) was more than 80%. In the data set with MRSA BAA-40 [8], the “MIC on MRSA BAA-40 during serial passage” value is on record as “remained relatively constant” and the “Tendency to cause resistance in the bacteria” value is “low tendency to cause resistance”.

By MIC is commonly meant the lowest concentration found to suppress growth. Broadly, the inhibition is the percentage by which the read-out fell short of the control. As a reminder, the IC50 is the concentration that gives 50% inhibition. Low readings indicate higher potency, high ones lower potency. What is called solubility is how much of the substance goes into solution per volume. The low end stands for a poorly soluble substance, the high end for a readily soluble substance.
